Measurements reported in patent EP4624497A1, “PHOSPHOEN[…] PROBE, PREPARATION METHOD THEREFOR AND APPLICATION THEREOF” (priority 2022, dated 2024).

How the values were obtained:
Assay in all cases: phosphoenolpyruvate titration of purified optical probe (fluorescence ratio)
Assay type in all cases: binding
Conditions in all cases: phosphoenolpyruvate 0 to 10 mM, purified probe treated 10 minutes, ex 420/485 nm, em 528 nm
[1] = biological target: T1, Thermus thermophilus TtPFK optical probe 254/255-TtPFK-cpYFP variant, TtPFK V54Q/I253K/Q254L/R255L/G256F, cpYFP Y1S (Thermus thermophilus, UniProt P21777, form not given/G256F/I253K/Q254L/R255L/V54Q)
T1 construct: His-tag; made in house; host or cells: E. coli BL21 (DE3)
Method: (§1) • 1. The expression vectors (for example, a phosphoenolpyruvate optical probe expression vector based on pCDF.) were transformed into BL21 (DE3) cells, incubated inverted overnight, and the clones were picked from the plates into 250 mL Erlenmeyer flasks, placed in a shaker at 37 °C and incubated at 220 rpm to OD=0.4-0.8, then 1/1000 (V/V) of IPTG (1 M) was added to induce expression at 18 °C for 24-36 hours. • 2. Upon completion of inducible expression, cells were harvested by centrifugation at 4000 rpm for 30 min, resuspended in 50 mM phosphate buffer and disrupted ultrasonically until the broth were clear, centrifuged at 9600 rpm at 4 °C for 20 min. • 3. The centrifuged supernatant was used to obtain protein by purification through a self-packed nickel column affinity chromatography column, and the protein obtained after nickel column affinity chromatography was further used to obtain protein dissolved in 100 mM HEPES buffer (pH 7.4). • 4. After purified proteins were subjected to SDS-PAGE, probes were diluted to a protein solution having a final concentration of 0.2-5 µM using assay buffer (100 mm HEPES, 100 mM NaCl, pH 7.4). Phosphoenolpyruvate was formulated as a stock solution at a final concentration of 50 mM with the assay buffer (100 mM HEPES, 100 mM NaCl, pH 7.4). • 5. 100 µl 1 µM of protein solution was taken, incubated at 37 °C for 10 min, phosphoenolpyruvate was added for titration, and the fluorescence intensity of 528 nm emission after 420 nm and 485 nm fluorescence excitation of the protein was measured. The fluorescence excitation and emission determination of the samples were done using a multifunctional fluorescence microplate reader. • 6. 100 µl 1 µM of protein solution was taken, incubated at 37 °C for 10 min, and phosphoenolpyruvate was added to determine the absorption and fluorescence spectra of the proteins. Determination of the absorption and fluorescence spectra of the samples was done by spectrophotometer and spectrofluorometer.
(§2) For the 254/255-TtPFK-cpYFP obtained in Example 2 and the 254/255-TtPFK-I253G/Q254L/R255L/G256F-cpYFP-Y1P, 254/255-TtPFK-I253K/Q254L/R255L/G256F-cpYFP-Y1S and 254/256-TtPFK-I253Q/Q254L/G256V/G257L-cpYFP-Y1T/N246F optical probes obtained in Example 6, amino acid were mutated at positions R21, R25, V54, R55, V57, A58, N59, I60, I61, R155, G186, R212, G213, K214, K215, S216 and L320 in the phosphoenolpyruvate binding pocket, and at positions R72, R163, R172 and R246 in the ATP binding pocket to adjust the affinity of the phosphoenolpyruvate optical probe to phosphoenolpyruvate and the substrate specificity. The probes were linearized by reverse PCR, and the sequences of the mutation sites were introduced into the primers. The obtained PCR products were subjected to homologous recombination to obtain plasmids containing the above site mutations. The mutant plasmids were transformed into BL21 (DE3) for induced expression, and the mutant probe proteins were purified for the phosphoenolpyruvate response test. The detection signal of the fusion fluorescent protein containing 2 mM phosphoenolpyruvate was divided by the detection signal of the fusion fluorescent protein without phosphoenolpyruvate. […]

[2] = biological target: T2, Thermus thermophilus TtPFK optical probe 254/255-TtPFK-cpYFP variant, TtPFK V54Q/I253G/Q254L/R255L/G256F, cpYFP Y1P (Thermus thermophilus, UniProt P21777, form not given/G256F/I253G/Q254L/R255L/V54Q)
T2 construct: the numbering corresponds to the full length of the phosphoenolpyruvate-sensitive polypeptide; His-tag; made in house; host or cells: E. coli BL21 (DE3)
Method: as §1, §2

[3] = biological target: T3, Thermus thermophilus TtPFK optical probe 254/256-TtPFK-cpYFP variant, TtPFK S216Y/I253Q/Q254L/G256V/G257L, cpYFP Y1T/N246F (Thermus thermophilus, UniProt P21777, form not given/G256V/G257L/I253Q/Q254L/S216Y)
T3 construct: His-tag; made in house; host or cells: E. coli BL21 (DE3), pCDF vector
Method: as §1, §2

[4] = biological target: T4, Thermus thermophilus TtPFK optical probe 254/256-TtPFK-cpYFP variant, TtPFK S216L/I253Q/Q254L/G256V/G257L, cpYFP Y1T/N246F (Thermus thermophilus, UniProt P21777, form not given/G256V/G257L/I253Q/Q254L/S216L)
T4 construct: the numbering corresponds to the full length of the phosphoenolpyruvate-sensitive polypeptide; His-tag; made in house; host or cells: E. coli BL21 (DE3), pCDF vector
Method: as §1, §2

[5] = biological target: T5, Thermus thermophilus TtPFK optical probe 254/255-TtPFK-cpYFP variant, TtPFK N59H/I253G/Q254L/R255L/G256F, cpYFP Y1P (Thermus thermophilus, UniProt P21777, form not given/G256F/I253G/N59H/Q254L/R255L)
T5 construct: the numbering corresponds to the full length of the phosphoenolpyruvate-sensitive polypeptide; His-tag; made in house; host or cells: E. coli BL21 (DE3)
Method: as §1, §2

[6] = biological target: T6, Thermus thermophilus TtPFK optical probe 254/256-TtPFK-cpYFP variant, TtPFK L320F/I253Q/Q254L/G256V/G257L, cpYFP Y1T/N246F (Thermus thermophilus, UniProt P21777, form not given/G256V/G257L/I253Q/L320F/Q254L)
T6 construct: the numbering corresponds to the full length of the phosphoenolpyruvate-sensitive polypeptide; His-tag; made in house; host or cells: E. coli BL21 (DE3), pCDF vector
Method: as §1, §2

[7] = biological target: T7, Thermus thermophilus TtPFK optical probe 254/256-TtPFK-cpYFP variant, TtPFK K215E/I253Q/Q254L/G256V/G257L, cpYFP Y1T/N246F (Thermus thermophilus, UniProt P21777, form not given/G256V/G257L/I253Q/K215E/Q254L)
T7 construct: the numbering corresponds to the full length of the phosphoenolpyruvate-sensitive polypeptide; His-tag; made in house; host or cells: E. coli BL21 (DE3), pCDF vector
Method: as §1, §2

[8] = biological target: T8, Thermus thermophilus TtPFK optical probe 254/256-TtPFK-cpYFP variant, TtPFK N59D/I253Q/Q254L/G256V/G257L, cpYFP Y1T/N246F (Thermus thermophilus, UniProt P21777, form not given/G256V/G257L/I253Q/N59D/Q254L)
T8 construct: His-tag; made in house; host or cells: E. coli BL21 (DE3)
Method: as §1, §2

T6 sequence (P21777 other isoform, or with tags, fused parts or gaps, stated change not applied): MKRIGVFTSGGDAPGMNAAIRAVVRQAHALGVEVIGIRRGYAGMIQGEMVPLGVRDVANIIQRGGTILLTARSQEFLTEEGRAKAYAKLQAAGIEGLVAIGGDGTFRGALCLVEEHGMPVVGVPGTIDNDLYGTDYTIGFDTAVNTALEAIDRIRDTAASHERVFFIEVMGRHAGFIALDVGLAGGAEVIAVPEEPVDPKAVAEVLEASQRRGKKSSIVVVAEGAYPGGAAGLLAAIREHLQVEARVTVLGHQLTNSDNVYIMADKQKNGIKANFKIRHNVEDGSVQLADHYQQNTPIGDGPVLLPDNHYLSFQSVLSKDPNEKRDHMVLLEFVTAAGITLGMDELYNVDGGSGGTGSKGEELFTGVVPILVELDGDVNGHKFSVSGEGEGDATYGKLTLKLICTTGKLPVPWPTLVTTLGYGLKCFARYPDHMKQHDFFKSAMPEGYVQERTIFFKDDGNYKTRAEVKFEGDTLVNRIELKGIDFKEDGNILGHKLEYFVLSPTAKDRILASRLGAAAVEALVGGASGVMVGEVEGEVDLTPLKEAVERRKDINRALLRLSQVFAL
T3 sequence (P21777 other isoform, or with tags, fused parts or gaps S216Y, form open): as the sequence (P21777 other isoform, or with tags, fused parts or gaps, stated change not applied) above, with S216Y, F565L counted along it
T8 sequence (P21777 other isoform, or with tags, fused parts or gaps N59D, form open): as the sequence (P21777 other isoform, or with tags, fused parts or gaps, stated change not applied) above, with N59D, F565L counted along it
T1 sequence (P21777 other isoform, or with tags, fused parts or gaps V54Q, form open): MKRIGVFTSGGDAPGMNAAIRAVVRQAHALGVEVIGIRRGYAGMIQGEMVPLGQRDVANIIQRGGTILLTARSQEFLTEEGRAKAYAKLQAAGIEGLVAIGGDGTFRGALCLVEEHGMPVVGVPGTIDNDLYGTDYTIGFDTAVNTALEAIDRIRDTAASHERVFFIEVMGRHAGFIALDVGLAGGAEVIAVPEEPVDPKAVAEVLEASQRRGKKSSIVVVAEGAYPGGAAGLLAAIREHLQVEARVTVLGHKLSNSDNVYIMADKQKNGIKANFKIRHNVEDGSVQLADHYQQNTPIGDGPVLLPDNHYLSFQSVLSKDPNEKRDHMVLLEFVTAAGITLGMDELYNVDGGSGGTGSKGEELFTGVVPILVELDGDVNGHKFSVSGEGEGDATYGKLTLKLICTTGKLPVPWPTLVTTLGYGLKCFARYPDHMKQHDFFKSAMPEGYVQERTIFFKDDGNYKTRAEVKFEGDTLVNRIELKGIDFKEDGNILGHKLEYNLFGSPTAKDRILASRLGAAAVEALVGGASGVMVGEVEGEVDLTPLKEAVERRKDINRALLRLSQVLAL
T4 sequence (P21777 other isoform, or with tags, fused parts or gaps S216L, form open): as the sequence (P21777 other isoform, or with tags, fused parts or gaps, stated change not applied) above, with S216L, F565L counted along it
T5 sequence (P21777 other isoform, or with tags, fused parts or gaps N59H, form open): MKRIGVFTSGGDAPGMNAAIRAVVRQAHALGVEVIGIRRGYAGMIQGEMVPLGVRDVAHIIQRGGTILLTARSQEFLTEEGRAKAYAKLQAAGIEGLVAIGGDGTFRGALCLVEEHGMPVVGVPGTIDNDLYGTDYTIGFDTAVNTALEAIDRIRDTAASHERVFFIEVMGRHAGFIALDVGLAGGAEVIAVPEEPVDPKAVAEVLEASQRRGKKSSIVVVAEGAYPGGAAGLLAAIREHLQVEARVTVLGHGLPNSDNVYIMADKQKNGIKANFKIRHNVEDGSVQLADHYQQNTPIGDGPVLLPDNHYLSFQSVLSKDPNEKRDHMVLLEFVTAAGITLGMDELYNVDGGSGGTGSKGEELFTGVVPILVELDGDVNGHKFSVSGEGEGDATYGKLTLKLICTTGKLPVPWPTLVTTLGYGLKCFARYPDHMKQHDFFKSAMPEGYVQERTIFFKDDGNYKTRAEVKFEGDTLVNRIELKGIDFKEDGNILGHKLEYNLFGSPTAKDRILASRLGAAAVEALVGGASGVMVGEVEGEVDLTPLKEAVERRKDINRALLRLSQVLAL
T7 sequence (P21777 other isoform, or with tags, fused parts or gaps K215E, form open): as the sequence (P21777 other isoform, or with tags, fused parts or gaps, stated change not applied) above, with K215E, F565L counted along it
T2 sequence (P21777 other isoform, or with tags, fused parts or gaps V54Q, form open): as the sequence (P21777 other isoform, or with tags, fused parts or gaps N59H, form open) above, with V54Q, H59N counted along it

## C=C(OP(=O)(O)O)C(=O)O [phosphoenolpyruvate, Phosphoenolpyruvate]
[1]
  Kd: 328 µM
[2]
  Kd: 769 µM
[3]
  Kd: 2.36 µM
[4]
  Kd: 1.39 µM
[5]
  Kd: 178 µM
[6]
  Kd: 1770 µM
[7]
  Kd: 249 µM
[8]
  Kd: 374 µM
